Our source for the MIC values is patent US10253039B2, “Inhibitors of bacterial DNA gyrase with efficacy against gram-negative bacteria” (priority 2014, dated 2019).

What all share (type): cell-based
Test [1] deals with Edwardsiella tarda. As to the kind of experiment: MIC, microdilution in 96-well plates. Summed up:
(§1)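 Growth inhibition was scored after overnight culture (16-18 hours, 37° C., shaking) by looking for turbidity; the first clear well in a triplicate 2-fold compound series defined the MIC. Strains were inoculated at 1:10000 into LB.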
In general terms: Dilution methods test growth across graded concentrations, often in twofold steps.

Test [2] relates to E. coli BW25113. As to the kind of experiment: MIC, microdilution in 96-well plates. Conditions: Escherichia coli, read-out: MIC. Summed up: as §1
Test [3] has as its system Salmonella enterica subsp. enterica typhimurium. As to the kind of experiment: MIC, 20-strain panel. Summed up: as §1
The subject of test [4] is Streptococcus agalactiae. Description: MIC, 20-strain panel. Put shortly: as §1
The test system of test [5] is Shigella flexneri. As to the kind of experiment: MIC, 20-strain panel. Summed up: as §1
In test [6] the test system is Klebsiella pneumoniae subsp. pneumoniae. As to the kind of experiment: MIC, 20-strain panel. Summed up: as §1
Test [7] deals with E. coli MG1655. Description: MIC, 20-strain panel. Conditions: Escherichia coli, read-out: MIC. Put shortly:
as §1

In test [8] the test system is Staphylococcus aureus subsp. aureus. As to the kind of experiment: MIC, 20-strain panel. To be noted: read-out: MIC. Summed up: as §1
Test [9] deals with Streptococcus pyogenes. Description: MIC, 20-strain panel. Summed up:
as §1

For test [10], the system named is E. coli JW5503 (deltolC). As to the kind of experiment: MIC, 20-strain panel. To be noted: Escherichia coli. Put shortly: as §1
Test [11] has as its system Staphylococcus saprophyticus subsp. saprophyticus. Description: MIC, 20-strain panel. Put shortly:
as §1

For test [12], the system named is Staphylococcus epidermidis. As to the kind of experiment: MIC, 20-strain panel. Summed up: as §1
[13] abbreviates: F: Salmonella enterica subsp. enterica Typhimurium.
[14] abbreviates: E: Klebsiella pneumoniae subsp. pneumoniae.
Where [15] appears, read: H: Staphylococcus aureus subsp. aureus.

Converted amounts (≈) assume the structure as drawn. Read-outs that look alike come from different tables or passages of the source.

As usually defined, the MIC is the smallest concentration in the dilution series that meets the test's criterion for growth inhibition. Take `O=S(=O)(N[C@@H]1CCN(Cc2ccc(-c3cccc(Cl)c3)cc2)C1)c1cccc(C(F)(F)F)c1` [Compound 50]: the MIC is greater than 8 µg/mL in [1] (D: Edwardsiella tarda); greater than 8 µg/mL in test [2] (BW25113, B: E. coli BW25113); greater than 8 µg/mL in test [3] (setting [13]); greater than 8 µg/mL in [4]; greater than 8 µg/mL in test [5] (G: Shigella flexneri); greater than 8 µg/mL in test [6] (setting [14]). Moreover, the MIC in test [7] (MG1655, A: E. coli MG1655) is greater than 8 µg/mL; in [8] (setting [15]), 8 µg/mL (≈ 16.2 µM); in test [9], roughly 8 µg/mL (≈ 16.2 µM); in test [10] (C: E. coli JW5503 (deltolC)) it was 8 µg/mL (≈ 16.2 µM); in test [11], greater than 8 µg/mL; in [12], 2 µg/mL (≈ 4.04 µM).
`Cc1ccc(S(=O)(=O)N[C@@H]2CCN(Cc3ccc(OC(C)C)cc3)C2)cn1` [Compound 139]: the MIC in test [1] is greater than 8 µg/mL; in [2] (BW25113, E. coli BW25113), greater than 8 µg/mL; in test [3] (Salmonella enterica subsp. enterica Typhimurium), greater than 8 µg/mL; in test [4] it was greater than 8 µg/mL; in test [5] it was greater than 8 µg/mL; in test [6] (Klebsiella pneumoniae subsp. pneumoniae), greater than 8 µg/mL. For the same compound, the MIC in test [7] (MG1655, E. coli MG1655) is greater than 8 µg/mL; in [8] (Staphylococcus aureus subsp. aureus) it was greater than 8 µg/mL; in test [9], greater than 8 µg/mL; in [10] (E. coli JW5503 (deltolC)), greater than 8 µg/mL; in test [11] it was greater than 8 µg/mL; in test [12], greater than 8 µg/mL.
As to `Cc1c(CN2CC[C@@H](NS(=O)(=O)c3cccc(C#N)c3)C2)cnn1-c1ccccc1` [Compound 30], the minimal inhibitory concentration (MIC) in [1] (D: Edwardsiella tarda) was greater than 8 µg/mL; in [2] (BW25113, B: E. coli BW25113), greater than 8 µg/mL; in test [3] (setting [13]) it was greater than 8 µg/mL; in test [4], greater than 8 µg/mL; in [5] (G: Shigella flexneri), greater than 8 µg/mL; in test [6] (setting [14]), greater than 8 µg/mL. Moreover, the minimal inhibitory concentration (MIC) was greater than 8 µg/mL in test [7] (MG1655, A: E. coli MG1655); greater than 8 µg/mL in [8] (setting [15]); greater than 8 µg/mL in [9]; greater than 8 µg/mL in test [10] (C: E. coli JW5503 (deltolC)); greater than 8 µg/mL in [11]; greater than 8 µg/mL in test [12].
As for `O=C1CCCN1c1ccc(CN2CC[C@@H](NS(=O)(=O)c3cccc(OC(F)(F)F)c3)C2)cc1` [Compound 100], the MIC in [1] (D: Edwardsiella tarda) was greater than 8 µg/mL; in test [2] (BW25113, B: E. coli BW25113), greater than 8 µg/mL; in test [3] (setting [13]), greater than 8 µg/mL; in [4] it was greater than 8 µg/mL; in [5] (G: Shigella flexneri), greater than 8 µg/mL; in [6] (setting [14]), greater than 8 µg/mL. In addition, the MIC in [7] (MG1655, A: E. coli MG1655) is greater than 8 µg/mL; in test [8] (setting [15]), greater than 8 µg/mL; in [9], greater than 8 µg/mL; in test [10] (C: E. coli JW5503 (deltolC)), 2 µg/mL (≈ 4.14 µM); in [11], greater than 8 µg/mL; in test [12], greater than 8 µg/mL.
As for `Cc1ccc(C(F)(F)F)cc1S(=O)(=O)N[C@@H]1CCN(Cc2ccc(-c3ccccc3)cc2)C1` [Compound 182], the MIC is greater than 8 µg/mL in test [1] (D: Edwardsiella tarda); greater than 8 µg/mL in test [2] (BW25113, B: E. coli BW25113); greater than 8 µg/mL in test [3] (setting [13]); greater than 8 µg/mL in test [4]; greater than 8 µg/mL in test [5] (G: Shigella flexneri); greater than 8 µg/mL in [6] (setting [14]). Besides, the minimal inhibitory concentration (MIC) was greater than 8 µg/mL in test [7] (MG1655, A: E. coli MG1655); greater than 8 µg/mL in test [8] (setting [15]); roughly 8 µg/mL (≈ 16.9 µM) in test [9]; 4 µg/mL (≈ 8.43 µM) in test [10] (C: E. coli JW5503 (deltolC)); greater than 8 µg/mL in test [11]; 4 µg/mL (≈ 8.43 µM) in test [12].
With `COc1cc(CN2CC[C@@H](NS(=O)(=O)c3cccc(OC(F)(F)F)c3)C2)ccc1OC(C)C` [Compound 88], the minimum inhibitory concentration (MIC) in [1] (D: Edwardsiella tarda) was greater than 8 µg/mL; in [2] (BW25113, B: E. coli BW25113), greater than 8 µg/mL; in test [3] (setting [13]), greater than 8 µg/mL; in [4], greater than 8 µg/mL; in [5] (G: Shigella flexneri), greater than 8 µg/mL; in [6] (setting [14]), greater than 8 µg/mL. The minimal inhibitory concentration (MIC) in test [7] (MG1655, A: E. coli MG1655) was greater than 8 µg/mL; in [8] (setting [15]), greater than 8 µg/mL; in [9], greater than 8 µg/mL; in [10] (C: E. coli JW5503 (deltolC)) it was greater than 8 µg/mL; in [11] it was greater than 8 µg/mL; in test [12] it was greater than 8 µg/mL.
Regarding `O=S(=O)(N[C@@H]1CCN(Cc2ccc(OC3CCCC3)cc2)C1)c1cccc(OC(F)(F)F)c1` [Compound 45], the MIC in [1] (D: Edwardsiella tarda) is greater than 8 µg/mL; in test [2] (BW25113, B: E. coli BW25113) it was greater than 8 µg/mL; in test [3] (setting [13]) it was greater than 8 µg/mL; in [4], greater than 8 µg/mL; in test [5] (G: Shigella flexneri), greater than 8 µg/mL; in [6] (setting [14]), greater than 8 µg/mL. Moreover, the minimal inhibitory concentration (MIC) is greater than 8 µg/mL in test [7] (MG1655, A: E. coli MG1655); greater than 8 µg/mL in [8] (setting [15]); greater than 8 µg/mL in test [9]; 2 µg/mL (≈ 4.13 µM) in test [10] (C: E. coli JW5503 (deltolC)); greater than 8 µg/mL in test [11]; 8 µg/mL (≈ 16.5 µM) in test [12].
Regarding `CC(C)Oc1ccc(CN2CC[C@@H](NS(=O)(=O)c3cc(Cl)cc(C(F)(F)F)c3)C2)cc1` [Compound 92], the MIC is greater than 8 µg/mL in test [1] (D: Edwardsiella tarda); greater than 8 µg/mL in [2] (BW25113, B: E. coli BW25113); greater than 8 µg/mL in [3] (setting [13]); greater than 8 µg/mL in test [4]; greater than 8 µg/mL in test [5] (G: Shigella flexneri); greater than 8 µg/mL in test [6] (setting [14]). Further, the minimal inhibitory concentration (MIC) in test [7] (MG1655, A: E. coli MG1655) is greater than 8 µg/mL; in test [8] (setting [15]) it was greater than 8 µg/mL; in test [9], greater than 8 µg/mL; in test [10] (C: E. coli JW5503 (deltolC)) it was 8 µg/mL (≈ 16.8 µM); in test [11] it was greater than 8 µg/mL; in [12] it was greater than 8 µg/mL.
